According to the NIST ThermoML archive (doi:10.1021/je200721d):

Assay: xn = mol fraction of the nth substance listed
Settings: Liquid, Vibrating tube method

CCCCCCCC [octane] + CCCCCC
Settings | mass density [kg/m3]
312.91 K, 1000 kPa, x2 = 0.2199 | 680.43
312.91 K, 2000 kPa, x2 = 0.2199 | 681.31
312.91 K, 3000 kPa, x2 = 0.2199 | 682.24
312.91 K, 4000 kPa, x2 = 0.2199 | 683.15
312.91 K, 5000 kPa, x2 = 0.2199 | 684.07
312.91 K, 6000 kPa, x2 = 0.2199 | 684.99
312.91 K, 7000 kPa, x2 = 0.2199 | 685.92
312.91 K, 8000 kPa, x2 = 0.2199 | 686.87
312.91 K, 9000 kPa, x2 = 0.2199 | 687.8
312.91 K, 10000 kPa, x2 = 0.2199 | 688.73
312.91 K, 11000 kPa, x2 = 0.2199 | 689.64
312.91 K, 12000 kPa, x2 = 0.2199 | 690.55
312.91 K, 13000 kPa, x2 = 0.2199 | 691.47
312.91 K, 14000 kPa, x2 = 0.2199 | 692.36
312.91 K, 15000 kPa, x2 = 0.2199 | 693.23
312.91 K, 16000 kPa, x2 = 0.2199 | 694.09
312.91 K, 17000 kPa, x2 = 0.2199 | 694.93
312.91 K, 18000 kPa, x2 = 0.2199 | 695.75
312.91 K, 19000 kPa, x2 = 0.2199 | 696.54
312.91 K, 20000 kPa, x2 = 0.2199 | 697.32
312.91 K, 21000 kPa, x2 = 0.2199 | 698.1
312.91 K, 22000 kPa, x2 = 0.2199 | 698.86
312.91 K, 23000 kPa, x2 = 0.2199 | 699.56
312.91 K, 24000 kPa, x2 = 0.2199 | 700.29
312.91 K, 25000 kPa, x2 = 0.2199 | 700.96
313.14 K, 1000 kPa, x2 = 0.1654 | 682.2
313.14 K, 1000 kPa, x2 = 0.5749 | 666.9
313.14 K, 1000 kPa, x2 = 0.7995 | 655.29
313.14 K, 1000 kPa, x2 = 0.9308 | 647.6
313.14 K, 2000 kPa, x2 = 0.1654 | 683.1
313.14 K, 2000 kPa, x2 = 0.5749 | 667.85
313.14 K, 2000 kPa, x2 = 0.7995 | 656.27
313.14 K, 2000 kPa, x2 = 0.9308 | 648.65
313.14 K, 3000 kPa, x2 = 0.1654 | 684.01
313.14 K, 3000 kPa, x2 = 0.5749 | 668.75
313.14 K, 3000 kPa, x2 = 0.7995 | 657.26
313.14 K, 3000 kPa, x2 = 0.9308 | 649.73
313.14 K, 4000 kPa, x2 = 0.1654 | 684.9
313.14 K, 4000 kPa, x2 = 0.5749 | 669.74
313.14 K, 4000 kPa, x2 = 0.7995 | 658.29
313.14 K, 4000 kPa, x2 = 0.9308 | 650.78
313.14 K, 5000 kPa, x2 = 0.1654 | 685.84
313.14 K, 5000 kPa, x2 = 0.5749 | 670.74
313.14 K, 5000 kPa, x2 = 0.7995 | 659.31
313.14 K, 5000 kPa, x2 = 0.9308 | 651.85
313.14 K, 6000 kPa, x2 = 0.1654 | 686.8
313.14 K, 6000 kPa, x2 = 0.5749 | 671.71
313.14 K, 6000 kPa, x2 = 0.7995 | 660.34
313.14 K, 6000 kPa, x2 = 0.9308 | 652.92
313.14 K, 7000 kPa, x2 = 0.1654 | 687.71
313.14 K, 7000 kPa, x2 = 0.5749 | 672.72
313.14 K, 7000 kPa, x2 = 0.7995 | 661.38
313.14 K, 7000 kPa, x2 = 0.9308 | 654
313.14 K, 8000 kPa, x2 = 0.1654 | 688.62
313.14 K, 8000 kPa, x2 = 0.5749 | 673.69
313.14 K, 8000 kPa, x2 = 0.7995 | 662.44
313.14 K, 8000 kPa, x2 = 0.9308 | 655.08
313.14 K, 9000 kPa, x2 = 0.1654 | 689.54
313.14 K, 9000 kPa, x2 = 0.5749 | 674.66
313.14 K, 9000 kPa, x2 = 0.7995 | 663.49
313.14 K, 9000 kPa, x2 = 0.9308 | 656.16
313.14 K, 10000 kPa, x2 = 0.1654 | 690.46
313.14 K, 10000 kPa, x2 = 0.5749 | 675.65
313.14 K, 10000 kPa, x2 = 0.7995 | 664.53
313.14 K, 10000 kPa, x2 = 0.9308 | 657.23
313.14 K, 11000 kPa, x2 = 0.1654 | 691.38
313.14 K, 11000 kPa, x2 = 0.5749 | 676.63
313.14 K, 11000 kPa, x2 = 0.7995 | 665.56
313.14 K, 11000 kPa, x2 = 0.9308 | 658.29
313.14 K, 12000 kPa, x2 = 0.1654 | 692.28
313.14 K, 12000 kPa, x2 = 0.5749 | 677.6
313.14 K, 12000 kPa, x2 = 0.7995 | 666.56
313.14 K, 12000 kPa, x2 = 0.9308 | 659.33
313.14 K, 13000 kPa, x2 = 0.1654 | 693.17
313.14 K, 13000 kPa, x2 = 0.5749 | 678.56
313.14 K, 13000 kPa, x2 = 0.7995 | 667.56
313.14 K, 13000 kPa, x2 = 0.9308 | 660.36
313.14 K, 14000 kPa, x2 = 0.1654 | 694.06
313.14 K, 14000 kPa, x2 = 0.5749 | 679.5
313.14 K, 14000 kPa, x2 = 0.7995 | 668.54
313.14 K, 14000 kPa, x2 = 0.9308 | 661.38
313.14 K, 15000 kPa, x2 = 0.1654 | 694.94
313.14 K, 15000 kPa, x2 = 0.5749 | 680.41
313.14 K, 15000 kPa, x2 = 0.7995 | 669.51
313.14 K, 15000 kPa, x2 = 0.9308 | 662.38
313.14 K, 16000 kPa, x2 = 0.1654 | 695.81
313.14 K, 16000 kPa, x2 = 0.5749 | 681.32
313.14 K, 16000 kPa, x2 = 0.7995 | 670.45
313.14 K, 16000 kPa, x2 = 0.9308 | 663.36
313.14 K, 17000 kPa, x2 = 0.1654 | 696.65
313.14 K, 17000 kPa, x2 = 0.5749 | 682.2
313.14 K, 17000 kPa, x2 = 0.7995 | 671.4
313.14 K, 17000 kPa, x2 = 0.9308 | 664.33
